What all share (type): functional, cell-based
The test system of one experiment is K562. Kind of experiment: Cytotoxicity against human K562 cells after 48 hrs by MTT assay. The note with it: K562, 48 h. (Tetrazolium assays rely on reduction of a dye to a coloured formazan, in cell work by metabolically active cells.)
The subject of the next experiment is U-937. In words: Cytotoxicity against human U937 cells after 48 hrs by MTT assay. The note with it: U-937, 48 h.
The test system of a further experiment is HL-60. In words: Cytotoxicity against human HL60 cells after 48 hrs by MTT assay. The note with it: HL-60, 48 h.
Experiment [1] is described as follows: Cytotoxicity against human A375-S2 cells after 48 hrs by MTT assay. As to conditions: A375-S2, 48 h.
In another experiment the test system is HT-1080. In words: Cytotoxicity against human HT1080 cells after 48 hrs by MTT assay. As to conditions: HT-1080, 48 h.
The next experiment deals with HCT-116. Kind of experiment: Cytotoxicity against human HCT116 cells after 48 hrs by MTT assay. As to conditions: HCT-116, 48 h.
Another experiment relates to A549. In words: Cytotoxicity against human A549 cells after 48 hrs by MTT assay. As to conditions: A549, 48 h.
The test system of another experiment is HepG2. Kind of experiment: Cytotoxicity against human HepG2 cells after 48 hrs by MTT assay. The note with it: HepG2, 48 h.
For another experiment, the system named is HeLa. In words: Cytotoxicity against human HeLa cells after 48 hrs by MTT assay.
The subject of another experiment is MCF7. In words: Cytotoxicity against human MCF7 cells after 48 hrs by MTT assay. As to conditions: MCF7, 48 h.

SMILES strings stand for the structures.

In the case of `C=C(C)[C@@]12OC3(/C=C/C=C\CCCCC)O[C@@H]1[C@@H]1[C@@H]4O[C@]4(CO)[C@@H](O)[C@]4(O)C(=O)C(C)=C[C@H]4[C@@]1(O3)[C@H](C)[C@H]2OC(C)=O` [ISOYUANHUADINE], the IC50 (in general, the point on the concentration scale where inhibition reaches its midpoint) in the experiment on K562 is 17.5 µM; in the experiment with U-937 it was 17.4 µM; in the experiment with HL-60, 17.7 µM; in [1], 21.5 µM; with HT-1080 it was 14.9 µM; in the experiment on HCT-116, 32.3 µM. Also, the IC50 in the experiment on A549 was 24.1 µM; in the experiment with HepG2 it was 30 µM; in the experiment with HeLa, 0.64 µM; with MCF7 it was 23.4 µM.
As for `C=C(C)[C@]12C[C@@H](C)[C@@]34OC(c5ccccc5)(O[C@@H]1[C@@H]3[C@@H]1O[C@]1(CO)[C@@H](O)[C@@]1(O)[C@H]4C[C@H](C)[C@@H]1O)O2` [ORTHOBENZOATE], the concentration for half-maximal inhibition (IC50) in the experiment on K562 was 42.3 µM; in the experiment with U-937 it was more than 50 µM; with HL-60, more than 50 µM; in experiment [1], 47.2 µM; in the experiment on HT-1080, 24.5 µM; in the experiment with HCT-116, 49.9 µM. The IC50 was more than 50 µM in the experiment on A549, 48.9 µM in the experiment on HepG2, 31.7 µM in the experiment with HeLa and 12.4 µM with MCF7.
Take `C=C(C)[C@]12C[C@@H](C)[C@@]34OC5(CCCCCCC[C@H](C)[C@H]6[C@H](C)[C@H](OC(=O)c7ccccc7)[C@@](O)([C@H](O)[C@@]7(CO)O[C@H]7[C@H]3[C@H]1O5)[C@@H]64)O2` [PIMELEA FACTOR P2]: the IC50 came to 25.2 µM in the experiment with K562; 16.7 µM in the experiment with U-937; 17.9 µM in the experiment on HL-60; 25.7 µM in [1]; 13.2 µM in the experiment on HT-1080; 19.6 µM in the experiment on HCT-116. Also, the IC50 in the experiment on A549 was 17 µM; with HepG2, 19.1 µM; with HeLa it was 18.3 µM; in the experiment with MCF7, more than 50 µM.
With `C=C(C)[C@]12C[C@@H](C)[C@@]34O[C@](CCCCCCCCC)(O[C@@H]1[C@@H]3[C@@H]1O[C@]1(CO)[C@@H](O)[C@]1(O)C(=O)C(C)=C[C@H]14)O2` [SIMPLEXIN], the IC50 is more than 50 µM with K562; more than 50 µM in the experiment with U-937; more than 50 µM in the experiment on HL-60; 10.7 µM in experiment [1]; less than 0.1 µM in the experiment on HT-1080; more than 50 µM in the experiment on HCT-116. Besides, the IC50 was determined as 27 µM in the experiment with A549, 38.8 µM in the experiment with HepG2, 21.7 µM in the experiment with HeLa and 25.4 µM in the experiment with MCF7.
`C=C(C)[C@]12C[C@@H](C)[C@@]34O[C@@]5(CCCCCCC[C@@H](C)[C@H]6[C@H](C)C(=O)[C@@](O)([C@H](O)[C@@]7(CO)O[C@H]7[C@H]3[C@H]1O5)[C@@H]64)O2` [WIKSTROELIDE E]: the IC50 with K562 turned out to be 24 µM; in the experiment on U-937, 19.5 µM; with HL-60 it was 22.1 µM; in [1] it was 29 µM; with HT-1080 it was 15.1 µM; in the experiment with HCT-116, 29.9 µM. The IC50 with A549 is 19.3 µM; with HepG2, 11.4 µM; with HeLa, 17.1 µM; with MCF7, more than 50 µM.
Regarding `C=C(C)[C@@]12O[C@@]3(/C=C/C=C/CCCCC)O[C@@H]1[C@@H]1[C@@H]4O[C@]4(CO)[C@@H](O)[C@]4(O)C(=O)C(C)=C[C@H]4[C@@]1(O3)[C@H](C)[C@H]2OC(C)=O` [YUANHUADINE], the half-maximal inhibitory concentration (IC50) in the experiment with K562 is 22.2 µM; in the experiment with U-937 it was 14.7 µM; with HL-60, 30.1 µM; in [1] it was 15.8 µM; with HT-1080, less than 0.1 µM; in the experiment with HCT-116 it was 32.6 µM. Besides, the concentration for half-maximal inhibition (IC50) was more than 50 µM with A549, 26.3 µM in the experiment with HepG2, 17.1 µM in the experiment on HeLa and 4.11 µM in the experiment on MCF7.
As to `C=C(C)[C@@]12OC3(c4ccccc4)O[C@@H]1[C@@H]1[C@H](O)[C@](O)(CO)[C@@H](O)[C@]4(O)C(=O)C(C)=C[C@H]4[C@@]1(O3)[C@H](C)[C@H]2OC(=O)c1ccccc1` [YUANHUAOATE B], the IC50 in the experiment with K562 amounted to 21.3 µM; in the experiment on U-937, 14.4 µM; in the experiment on HL-60 it was 27 µM; in experiment [1] it was 23.3 µM; in the experiment with HT-1080 it was 0.59 µM; in the experiment on HCT-116, 26.5 µM. The IC50 in the experiment with A549 was 15.9 µM; in the experiment with HepG2, 25.1 µM; with HeLa, 21 µM; in the experiment with MCF7, 0.37 µM.
Take `C=C(C)[C@@]1(O)[C@H](OC(=O)/C=C/C=C/CCCCC)[C@@H]2[C@@H]3O[C@]3(CO)[C@@H](O)[C@]3(O)C(=O)C(C)=C[C@H]3[C@@]2(O)[C@H](C)[C@H]1OC(=O)c1ccccc1` [YUANHUAOATE E]: the IC50 amounted to 29 µM in the experiment with K562; 11.6 µM in the experiment with U-937; 18.5 µM in the experiment on HL-60; 26.5 µM in experiment [1]; 18.4 µM in the experiment on HT-1080; 16.4 µM in the experiment with HCT-116. Further, the half-maximal inhibitory concentration (IC50) is 13.3 µM with A549, 11.1 µM in the experiment with HepG2, 16.7 µM in the experiment with HeLa and more than 50 µM in the experiment on MCF7.

The record behind these values is ChEMBL document CHEMBL2375331, “Daphnane-type diterpenes with inhibitory activities against human cancer cell lines from Daphne genkwa” (Bioorg Med Chem Lett, 2013).
